The target of the assay is T1, tyrosyl-DNA phosphodiesterase 2 (hTDP2-CAT) (Homo sapiens, UniProt O95551, C273S).
T1 construct: gene TDP2; catalytic domain, residues 113–362
T1 sequence (O95551 113-362 C273S): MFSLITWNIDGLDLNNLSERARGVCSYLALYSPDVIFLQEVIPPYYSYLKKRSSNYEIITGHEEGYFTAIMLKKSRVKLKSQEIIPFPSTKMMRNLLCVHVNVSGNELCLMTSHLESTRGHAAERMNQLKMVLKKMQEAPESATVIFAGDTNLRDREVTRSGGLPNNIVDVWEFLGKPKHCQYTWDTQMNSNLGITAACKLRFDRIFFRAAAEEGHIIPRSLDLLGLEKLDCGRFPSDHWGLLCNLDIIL
Nature of the assay: fluorescence-based […]'-phosphotyrosyl oligonucleotide enzyme assay. In kind it is biochemical.

Consider one compound from PMC4925160, “Mode of action of DNA-competitive small molecule inhibitors of tyrosyl DNA phosphodiesterase 2” (Biochemical Journal, 2016).

SMILES strings stand for the structures.

Compound `N#Cc1ccc2cc3c(=O)[nH]c(=O)nc-3n(-c3cccc(CO)c3)c2c1` [compound 149, 149] yielded an IC50 of 489 nM. In other words, the sub-micromolar range.

What is called IC50 is the concentration that inhibits the measured activity by half. Read a low IC50 as greater potency in that assay.
